The conditions of data set [1]: unbound molecule; cited from earlier work.
A short description of data set [2]: Thermogravimetric analysis, thermal stability. The data set is classed as physicochemical. The settings on record: simple salt. How it is done: Amberlite IRP69 strong cation-exchange material was stirred in a minimal amount of deionized water and an excess (˜10-500 molar excess) silver nitrate was added and the mixture stirred by the addition of a mechanical stirrer for 60 minutes. […] The modified IRP69 was dried under vacuum at 130° C. and the material was milled with an IKA homogenizer and the resulting particles were put through a sieve with a 35 μm cutoff. The powder was dried under vacuum and used for incorporation within various polymer composite mixtures.
Thermal stability of a benzalkonium salt of IRP69 (IRP69-benzalkonium) was measured and compared to thermal stability of benzalkonium chloride (simple salt). […] (close to the optimal processing temperature polyethylene terephthalate), unexpectedly providing for stable incorporation of the subject biologically active materials within composites useful to create fibers, threads, woven textiles and fabrics incorporating these thermally demanding materials.

The values below come from patent US20170304815A1, “Antimicrobial And Biological Active Polymer Composites And Related Methods, Materials and Devices” (IASIS MOLECULAR SCIENCES, priority 2014, published 2017).

Take `[H]/N=C(\N/C(=N/[H])NCCCCCCNC(=N)NC(=N)Nc1ccc(Cl)cc1)Nc1ccc(Cl)cc1` [Chlorhexidine]: the “susceptible to thermal degradation to p-chloroaniline above” value in data set [1] is “above 70 °C”.

Turning to benzalkonium chloride, in data set [2], the “begins to decompose at (thermogravimetric profile)” value is “about 200 °C”.
